{"source": "patent US6767900B2", "about": "“Phosphonate nucleotide compound” (Mitsubishi Pharma Corporation, priority 2000, dated 2004)", "key": {"Hepatitis B Virus (HBV)": {"test_system": "Hepatitis B Virus (HBV)", "assay": "Inhibitory effect against growth of hepatitis B virus (HBV-DNA synthesis in HB611 cells, Southern blotting)", "assay_type": "cell-based", "details": "read-out: 50% inhibition concentration against HBV-DNA synthesis; HB611 cells (recombinant human hepatoma cells producing HBV); test compound 0.005 to 100 μM from day 8; DNA collected day 17"}, "HB611 cells": {"test_system": "HB611 cells", "assay": "Cytotoxicity to HB611 cells", "assay_type": "cell-based, human", "method": "The inhibitory effect of the compound of the present invention against the growth of an HBV was measured by a known method (K. Ueda, et al., Virology, 169, 213-216 (1989)). 2×10^4 of HB611 cells (recombinant human hepatoma cells producing HBV) were cultured at 37° C. in Dulbecco ME medium containing 10% fetal bovine serum, streptomycin (100 μg/ml), penicillin (100IU/ml) and Genetisin (trade name, antibiotic by LifeTechnologies) (0.2 mg/ml). At the second day and the fifth day of culturing, the medium was replaced by a fresh medium, and then at the eighth day, the eleventh day and the fourteenth day of culturing, the medium was replaced with a medium containing 0.005 to 100 μM (final concentration) of the test compound, and at the seventeenth day of culturing, DNA of the cells were collected. […] Moreover, a concentration of the compounds required to kill 50% of HB611 cells was determined.\nEach compound number in the table corresponds to the compound number in Table 1. For reference, the results of the evaluation of the compounds described in EP785208 are also shown."}}, "data": [{"smiles": "Nc1nc(Sc2ccc(O)cc2)c2ncn(CCOCP(=O)(OCC(F)(F)F)OCC(F)(F)F)c2n1", "note": "[Compound No. 3, 2-amino-9-[2-(phosphonomethoxy)ethyl]-6-(4-hydroxyphenylthio)purine bis(2,2,2-trifluoroethyl) ester]", "values": [{"measurement": "IC50", "setting": "Hepatitis B Virus (HBV)", "value": 50, "unit": "nM"}, {"measurement": "Cytotoxic concentration required to kill 50% of HB611 cells", "setting": "HB611 cells", "value": ">1,000 μM"}]}]}
